Experimental data from a melting point compilation (Tetko et al.; mined from patent text by program, amines drawn as free bases though some values may be those of a salt).

Row | SMILES | melting point
1 | Cc1sc(-c2ccncc2)nc1CCOc1ccc(C[C@H](Nc2ccccc2C(=O)c2ccccc2)C(=O)O)cc1 | 155 to 158 °C
2 | COC(=O)c1ccc2nc(C)n(Cc3ccc(Cl)cc3OC)c2n1 | 166 to 168 °C
3 | CCN(CC)C(=O)n1ccc(Sc2cccc(Cl)c2C)n1 | 87 to 88 °C
4 | CCCCc1nc(NC(=O)Nc2ccccc2)[nH]c(=O)c1Cc1ccc(-c2ccccc2C(=O)OC)cc1 | 217 to 219 °C
5 | O=C1CCCC(=O)C1C(=O)c1ccc(OC(F)F)cc1Cl | 68 to 72 °C
6 | CNC(=O)C(=O)CCCCCCc1csc(-c2ccccc2)n1 | 70 to 72 °C
7 | CCOP(=O)(OCC)C(CC(C(=O)Nc1ccccn1)C(=O)c1ccccc1)P(=O)(OCC)OCC (configuration not stated) | 104 to 105 °C
8 | CCN1CCCC1CNC(=O)c1cc(NS(C)(=O)=O)c(C)cc1OC (configuration not stated) | 132 to 133 °C
9 | N=C(N)c1ccc(C(=O)N[C@@H](Cc2ccccc2)C(=O)c2ccc(OCC(=O)O)cc2)cc1 | > 200 °C
10 | O=C(CCl)Nc1ccc2ncnc(Nc3cccc(Br)c3)c2c1 | > 300 °C
11 | COc1ccccc1OCC1SCCN1S(C)(=O)=O (configuration not stated) | 118 to 120 °C
12 | O=C(N[C@H](Cc1ccc(C(F)(F)F)cc1)[C@@H](O)c1ccc(F)cc1)c1cccc2cccnc12 (racemic) | 83 to 84 °C
13 | CCOC(=O)n1c2ccccc2c(=O)n1CSc1ccccc1 | 87 to 88 °C
14 | COc1cc(OC)nc(-c2c(C)[nH]c3ccc(Cl)cc23)n1 | 179 to 181 °C
15 | CCCCCCSc1[nH]c2cccc3c2c1CC1C3C=C(C)CN1C (configuration not stated) | 199 to 201 °C
16 | CCCCCNC(=S)CC(=O)O | 72 to 76 °C
17 | O=C(Nc1ccc(Cl)cn1)c1cc(Cl)ccc1NCC1CCN(C(=O)c2cccs2)CC1 | 163 to 165 °C
18 | Cc1cccc(Nc2nc(-c3ccc(-c4ccccc4)cc3)cs2)n1 | 218 to 222 °C
19 | N#Cc1c(N2CCCCC2)cc(-c2ccccc2)c2c1-c1ccccc1C2 | 156 °C
20 | Cc1sc2c(Br)c3ccccc3c(C3=CC(Br)([N+](=O)[O-])C(OC(Cc4ccccc4)C(=O)O)C=C3)c2c1C (configuration not stated) | 243 to 245 °C
21 | O=C(CCCCCNC(=O)[C@H](Cc1c[nH]c2ccccc12)NC(=O)CCCc1ccccc1)NO | 106 to 108 °C
22 | Cc1[nH]cc2c(=O)n(-c3ccc(Cl)cc3)nc-2c1-c1cccc(C(=O)N2CCN(C)CC2)c1 | 318 to 322 °C
23 | O=C(O)C1c2ccccc2CSc2ccc(Br)cc21 (configuration not stated) | 185 to 186 °C
24 | COc1cc(F)ccc1N1CCN(CCCn2c(=O)[nH]c3c(c2=O)CCCC3)CC1 | 230 to 232 °C
25 | N=c1ccccn1Cc1ccccc1 | 52 to 54 °C

Row | SMILES | melting point
26 | CCCCCCCCCCCCCCCCCCC1(CO)OC(n2cccnc2=O)C(O)C1O (configuration not stated) | 159 °C
27 | Cc1ccc(C)c(OCCC(O)C(C)(C)C(=O)O)c1 (configuration not stated) | 100 °C
28 | CCCC[C@H]1C(=O)CC[C@@]2(C)CC[C@@H]3C[C@]12OC3(C)C | 64 to 66 °C
29 | COc1ccn(O)c(=O)c1 | 174 to 175 °C
30 | CCOC(=O)/C(C)=C/c1ccc(OC(C)C)cc1Oc1ncc(C(F)(F)F)cc1Cl | 61 to 62 °C
31 | COc1ccc(S(=O)(=O)N2Cc3ccccc3N(C(=O)c3ccc(OC)cc3OC)CC2C(=O)NO)cc1 (configuration not stated) | 189 to 191 °C
32 | Cc1ccccc1NC(=O)CN1C[C@@H](C)N(c2ncnc3sccc23)[C@@H](C)C1 | 174 to 175 °C
33 | CC(C)(Oc1ccc(C2CCOCC2)cc1)C(=O)O | 112 °C
34 | FC(F)(F)Oc1ccc(-c2nccc(Cl)n2)cc1 | 70 to 73 °C
35 | COc1cc(OC)nc(NC(=O)NS(=O)(=O)Oc2ccccc2C(=O)OCCCl)n1 | 148 to 150 °C
36 | CCn1nc(-c2ccc(F)cc2)c(C(C)=O)c(Nc2cccc3cccnc23)c1=O | 154 °C
37 | O=C(CI)c1cc(OCc2ccccc2)c(OCc2ccccc2)c(OCc2ccccc2)c1 | 110 to 112 °C
38 | CCCCOc1cc2cc(C(=O)OC)c(C(=O)OC)c(-c3ccncc3)c2cc1OC | 149 to 151 °C
39 | NNC(=S)C12CC3CC(CC(C3)C1)C2 | 204 to 206 °C
40 | COCc1cc([N+](=O)[O-])c(Cl)cc1C(=O)Cl | 63 to 65 °C
41 | Nc1nc(N)c(CCCNc2ccc(C(=O)N[C@@H](CCC(=O)O)C(=O)O)cc2)c(=O)[nH]1 | 195 to 200 °C
42 | COc1cc(OC)nc(Oc2ccc3ccccc3c2C=NNc2ccccc2)n1 | 148 °C
43 | Cc1oc(-c2ccccc2)nc1CCCc1ccc(CCCC2OC(=O)NC2=O)cc1 (configuration not stated) | 119 to 120 °C
44 | CCN1CC(=O)N(c2ccccc2SC)C1=S | 128 to 131 °C
45 | CN1CCC(C2(O)c3ccccc3CCn3cccc32)CC1 (configuration not stated) | 175 to 177 °C
46 | O=C(Nc1ccc2cc(CN3CCCC3)cnc2c1)c1ccc(-c2ccc(F)cc2)cc1 | 210 to 212 °C
47 | O=c1c(-c2ccccc2)c(Cn2cnc3ccccc32)oc2ccccc12 | 186 to 191 °C
48 | Cc1nnc2n1-c1ccc([N+](=O)[O-])cc1C(c1ccccc1)=NC2 | 233 to 234 °C
49 | CCCn1cnc2nc(-c3ccc(Cl)cc3)nn2c1=S | 214 to 216 °C
50 | O=C(c1c(-c2cc(Cl)cc(Cl)c2)[nH]c2c(Cl)cc(Cl)cc12)C(F)(F)F | 214 to 216 °C

More lines, now with the values ahead:

Row | melting point | SMILES
51 | 196 to 198 °C | N[C@H]1CCN(c2ccc3c(C(=O)NCCc4ccccc4Cl)c(Cl)ccc3n2)C1
52 | 69 to 70 °C | COCN1C(C)=C(C(=O)O)C(c2ccccc2C(F)(F)F)C(C(=O)OCOC(=O)C(C)(C)C)=C1C (single isomer, unassigned; (+))
53 | 208 to 209 °C | COc1cc2c(c3ccccc13)N(C(C)=O)c1ccccc1S2
54 | 201 °C | CCC(Cc1c(I)cc(I)c(NC(=O)CN2CCNCCNCCNCC2)c1I)C(=O)O (configuration not stated)
55 | 63 to 64 °C | CC(C#N)=Cc1ccc(C=O)cc1
56 | 166 to 169 °C | Cc1[nH]c2ccc(F)cc2c1C(=O)NC1CCN(Cc2ccccc2)CC1
57 | 248 to 250 °C | CNS(=O)(=O)c1cn(C)c2ccccc2c1=O
58 | 113 to 115 °C | CC(=O)C(O)C1OC(O)(N=C=O)C(O)(C(C)=O)C(O)(C(C)=O)C1(O)C(C)=O (configuration not stated)
59 | 194 to 197 °C | O=C(c1cccc2cc[nH]c12)N1CCN(c2ncccn2)CC1
60 | 330 to 332 °C | Cc1c(-c2ccc(N)cc2)[nH]c2nccnc12
61 | 78 to 79 °C | CCCCc1nnc(SCc2ccc(OC)cc2)n1Cc1ccc(OC(C(=O)O)c2ccccc2)cc1 (configuration not stated)
62 | 194 °C | N#Cc1nc2cc(O)ccc2s1
63 | 156 °C | COc1ccc2[nH]c(C(=O)N3CCc4cc(C(=O)NO)ccc4C3)cc2c1
64 | 258 °C | Cc1cn(-c2cc(NC(=O)c3ccc(C)c(/C=C/n4cnc5c(N)ncnc54)c3)cc(C(F)(F)F)c2)cn1
65 | 145 to 146 °C | CN(C)Cc1nncn1-c1ccc(Br)cc1C(=O)c1ccccn1
66 | 140 to 143 °C | CN(C)c1ccc(C=NO)c([N+](=O)[O-])c1
67 | 150 to 151 °C | O=C(O)[C@H](Cc1ccc(CC(F)(F)C(F)(F)F)cc1)[C@@H](O)c1cccc(Cl)c1 (racemic)
68 | 218 to 220 °C | Cn1nc(-c2ccc(S(C)(=O)=O)cc2)c2ccccc2c1=O
69 | 179 to 181 °C | O=C(Nc1c(C(O)(C(F)(F)F)C(F)(F)F)ccc2ccccc12)c1cccc(Cl)c1
70 | 206 °C | N#Cc1c(N)nc2ccc(N3CCOCC3)cc2c1Cl
71 | 238 to 239 °C | CC(C)C(NC(=O)NCc1cccnc1)C(=O)NC(Cc1ccccc1)C(O)C(Cc1ccccc1)NC(=O)C(NC(=O)NCc1cccnc1)C(C)C (configuration not stated)
72 | 119 °C | Cc1ccnc(N2CCN(CCCCC3Sc4ccccc4NC3=O)CC2)c1 (configuration not stated)
73 | 158 to 159 °C | COc1cc2c(CCNC(C)=O)c[nH]c2cc1F
74 | > 360 °C | COc1ccc2nc3[nH]c(=O)[nH]c3cc2c1

Row | melting point | SMILES
75 | 119 to 121 °C | N=C(N)NCCc1ccc(OCCCCC(c2ccccc2)(c2ccccc2)c2ccccc2)cc1
76 | 202 to 204 °C | CCC1(c2cccs2)OCC(=O)Nc2ccc(-c3csc(C#N)c3)cc21 (configuration not stated)
77 | 160 to 161 °C | NS(=O)(=O)c1ccc(-c2cccn2-c2ccc(F)cc2)cc1
78 | 45 to 47 °C | COc1ccc(C(F)(F)F)cc1NC(=N)Nc1cccc(C(F)(F)F)c1
79 | 82 °C | O=C(NN1CCCCCC1)C(CS)Cc1ccccc1 (configuration not stated)
80 | 144 to 146 °C | CC(=O)c1cc(O)c(C)cc1O
81 | 164 to 165 °C | CCOC(=O)C(=O)CC(=O)c1cn(Cc2ccc(F)cc2)c2c(Cl)cccc2c1=O
82 | 146 to 148 °C | COCCOCCN1C(=O)C2(COc3cc4c(cc32)OCCO4)c2cc3c(cc21)OCCO3 (configuration not stated)
83 | 153 to 155 °C | CNC(=O)CCCSc1nccc(NC(N)=NCC(F)(F)F)n1
84 | 197 to 199 °C | CC1(C)Oc2ccc(C#N)cc2[C@@H](NNC(=O)c2ccccc2)[C@@H]1O (relative stereo)
85 | 128 to 130 °C | O=C(COc1ccc(Cl)cc1)c1ccc(Br)s1
86 | 114 to 116 °C | CCc1cc(C=O)c(O)c(S(C)(=O)=O)c1
87 | 118 to 120 °C | CC(C)(C)OC(=O)COc1ccc(C(=O)O)cc1OCC(=O)OC(C)(C)C
88 | 162 °C | O=[N+]([O-])c1ccc(OCC(O)CO)c(O)c1 (configuration not stated)
89 | 209 to 210 °C | Cc1c(C=O)c2c(c(C)c1NC(=O)NC(C)(C)C)C(c1ccc(C(C)C)cc1)CO2 (single isomer, unassigned; (-))
90 | 294 to 296 °C | CC1CC(=O)c2c(Cl)c(F)cc3c(=O)c(C(=O)O)cn1c23 (single isomer, unassigned; (-))
91 | 107 to 110 °C | CCOC(=O)C(C)(C)c1ccc2c(c1)N(CC(C)N(C)C)c1ccccc1S2 (configuration not stated)
92 | 156 to 158 °C | CC(=O)N1CCOc2ccc(C3=NNC(=O)CC3)cc21
93 | 300 °C | Cc1nc2c(cnn2-c2c(Cl)cc(C(F)(F)F)cc2Cl)c(=O)[nH]1
94 | 88 to 90 °C | CCCCCCCCC(SCCCCCC)C(=O)Nc1c(OCC)ccc2ncccc12 (configuration not stated)
95 | 200 °C | CCNC(=O)c1ccc(N2CCN(Cc3cc4c(c(OCC)c3)OC(C)C(=O)N4)CC2)c(C)c1 (configuration not stated)
96 | 140 to 141 °C | Cc1cccc2c(=O)c3cccc(-c4ccccc4)c3oc12
97 | 195 to 198 °C | O=Cc1cnn(-c2ccc(C(F)(F)F)cc2[N+](=O)[O-])c1Br
